Assay results taken from PubChem BioAssay (NCI).
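Here, GI50 denotes the concentration required for 50% inhibition of growth. TGI: total growth inhibition.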

What was measured:
Experiment in all cases: DTP human tumour cell line panel, 384-well format
[1] = system: 786-0 renal
[2] = system: A498 renal
[3] = system: A549 NSCLC
[4] = system: ACHN renal
[5] = system: BT-549 breast
[6] = system: CAKI-1 renal
[7] = system: CCRF-CEM leukemia
[8] = system: COLO 205 colon
[9] = system: DU-145 prostate
[10] = system: EKVX NSCLC
[11] = system: HCC-2998 colon
[12] = system: HCT-116 colon
[13] = system: HCT-15 colon
[14] = system: HL-60(TB) leukemia
[15] = system: HOP-62 NSCLC
[16] = system: HS 578T breast
[17] = system: HT29 colon
[18] = system: IGROV1 ovarian
[19] = system: KM12 colon
[20] = system: M14 melanoma
[21] = system: MALME-3M melanoma
[22] = system: MDA-MB-231 breast
[23] = system: MDA-MB-435 melanoma
[24] = system: MDA-MB-468 breast
[25] = system: MOLT-4 leukemia
[26] = system: NCI-H23 lung
[27] = system: NCI-H322M lung
[28] = system: NCI-H460 NSCLC
[29] = system: NCI-H522 lung
[30] = system: NCI/ADR-RES ovarian
[31] = system: OVCAR-3 ovarian
[32] = system: OVCAR-8 ovarian
[33] = system: PC-3 prostate
[34] = system: RPMI-8226 leukemia
[35] = system: RXF 393 renal
[36] = system: SF-268 CNS
[37] = system: SF-539 CNS
[38] = system: SK-MEL-28 melanoma
[39] = system: SK-MEL-5 melanoma
[40] = system: SN12C renal
[41] = system: SNB-19 CNS
[42] = system: SR leukemia
[43] = system: SW-620 colon
[44] = system: T-47D breast
[45] = system: U251 glioblastoma
[46] = system: UACC-257 melanoma
[47] = system: UO-31 renal

## C[C@H](NC(=O)CCC(F)(F)F)C(=O)N[C@@H]1C(=O)N(CCO)c2ncccc2-c2ccccc21
[1]
  GI50: > 100 µM
  TGI: > 100 µM
[2]
  GI50: > 100 µM
  TGI: > 100 µM
[3]
  GI50: > 100 µM
  TGI: > 100 µM
[4]
  GI50: > 100 µM
  TGI: > 100 µM
[5]
  GI50: > 100 µM
  TGI: > 100 µM
[6]
  GI50: > 100 µM
  TGI: > 100 µM
[7]
  GI50: 22.9 µM
  TGI: > 56.2 µM
[8]
  GI50: > 100 µM
  TGI: > 100 µM
[9]
  GI50: > 100 µM
  TGI: > 100 µM
[10]
  GI50: > 100 µM
  TGI: > 100 µM
[11]
  GI50: > 100 µM
  TGI: > 100 µM
[12]
  GI50: > 100 µM
  TGI: > 100 µM
[13]
  GI50: > 100 µM
  TGI: > 100 µM
[14]
  GI50: 54.5 µM
  TGI: > 100 µM
[15]
  GI50: > 100 µM
  TGI: > 100 µM
[16]
  GI50: > 100 µM
  TGI: > 100 µM
[17]
  GI50: > 100 µM
  TGI: > 100 µM
[18]
  GI50: > 100 µM
  TGI: > 100 µM
[19]
  GI50: > 100 µM
  TGI: > 100 µM
[20]
  GI50: > 100 µM
  TGI: > 100 µM
[21]
  GI50: > 100 µM
  TGI: > 100 µM
[22]
  GI50: > 100 µM
  TGI: > 100 µM
[23]
  GI50: > 100 µM
  TGI: > 100 µM
[24]
  GI50: > 100 µM
  TGI: > 100 µM
[25]
  GI50: 29.8 µM
  TGI: > 100 µM
[26]
  GI50: > 100 µM
  TGI: > 100 µM
[27]
  GI50: > 100 µM
  TGI: > 100 µM
[28]
  GI50: > 100 µM
  TGI: > 100 µM
[29]
  GI50: > 100 µM
  TGI: > 100 µM
[30]
  GI50: > 100 µM
  TGI: > 100 µM
[31]
  GI50: > 100 µM
  TGI: > 100 µM
[32]
  GI50: > 100 µM
  TGI: > 100 µM
[33]
  GI50: > 100 µM
  TGI: > 100 µM
[34]
  GI50: 49.8 µM
  TGI: > 100 µM
[35]
  GI50: > 100 µM
  TGI: > 100 µM
[36]
  GI50: > 100 µM
  TGI: > 100 µM
[37]
  GI50: > 100 µM
  TGI: > 100 µM
[38]
  GI50: > 100 µM
  TGI: > 100 µM
[39]
  GI50: > 100 µM
  TGI: > 100 µM
[40]
  GI50: > 100 µM
  TGI: > 100 µM
[41]
  GI50: > 100 µM
  TGI: > 100 µM
[42]
  GI50: 64 µM
  TGI: > 100 µM
[43]
  GI50: 87.1 µM
  TGI: > 100 µM
[44]
  GI50: > 100 µM
  TGI: > 100 µM
[45]
  GI50: > 100 µM
  TGI: > 100 µM
[46]
  GI50: > 100 µM
  TGI: > 100 µM
[47]
  GI50: > 100 µM
  TGI: > 100 µM
